# Key:
# Assay type in all cases: binding
# [1] = biological target: T1, TAF1L(1) (Homo sapiens, UniProt Q8IZX4); assay: Thermal shift assay, TAF1L(1)
# T1 construct: Bromosporine with recombinant human bromodomain proteins; made in house
# T1 sequence (Q8IZX4 1395-1503 limits assumed): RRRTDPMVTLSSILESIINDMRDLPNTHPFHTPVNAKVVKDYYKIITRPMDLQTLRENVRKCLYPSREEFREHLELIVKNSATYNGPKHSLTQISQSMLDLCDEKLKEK
# Procedure: II.VII Thermal Shift Assay[6]
# Thermal melting experiments were carried out using an Mx3005p Real Time PCR machine (Stratagene). Proteins were buffered in 10 mM HEPES pH 7.5, 500 mM NaCl and assayed in a 96-well plate at a final concentration of 2 μM in 20 μL volume. Compounds were added at a final concentration of 50 μM. SYPRO Orange (Molecular Probes) was added as a fluorescence probe at a dilution of 1:1000. Excitation and emission filters for the SYPRO-Orange dye were set to 465 nm and 590 nm, respectively. The temperature was raised with a step of 3 °C per minute from 25 °C to 96 °C and fluorescence readings were taken at each interval. The unfolding curves were fitted using the Boltzmann equation to determine the middle point of the transition.
# [2] = biological target: T2, BRPF1B (Homo sapiens, UniProt P55201); assay: Thermal shift assay, BRPF1B
# T2 construct: purchased in-house (SGC bromodomain thermal shift / AlphaScreen panel)
# T2 sequence (P55201 1-1214): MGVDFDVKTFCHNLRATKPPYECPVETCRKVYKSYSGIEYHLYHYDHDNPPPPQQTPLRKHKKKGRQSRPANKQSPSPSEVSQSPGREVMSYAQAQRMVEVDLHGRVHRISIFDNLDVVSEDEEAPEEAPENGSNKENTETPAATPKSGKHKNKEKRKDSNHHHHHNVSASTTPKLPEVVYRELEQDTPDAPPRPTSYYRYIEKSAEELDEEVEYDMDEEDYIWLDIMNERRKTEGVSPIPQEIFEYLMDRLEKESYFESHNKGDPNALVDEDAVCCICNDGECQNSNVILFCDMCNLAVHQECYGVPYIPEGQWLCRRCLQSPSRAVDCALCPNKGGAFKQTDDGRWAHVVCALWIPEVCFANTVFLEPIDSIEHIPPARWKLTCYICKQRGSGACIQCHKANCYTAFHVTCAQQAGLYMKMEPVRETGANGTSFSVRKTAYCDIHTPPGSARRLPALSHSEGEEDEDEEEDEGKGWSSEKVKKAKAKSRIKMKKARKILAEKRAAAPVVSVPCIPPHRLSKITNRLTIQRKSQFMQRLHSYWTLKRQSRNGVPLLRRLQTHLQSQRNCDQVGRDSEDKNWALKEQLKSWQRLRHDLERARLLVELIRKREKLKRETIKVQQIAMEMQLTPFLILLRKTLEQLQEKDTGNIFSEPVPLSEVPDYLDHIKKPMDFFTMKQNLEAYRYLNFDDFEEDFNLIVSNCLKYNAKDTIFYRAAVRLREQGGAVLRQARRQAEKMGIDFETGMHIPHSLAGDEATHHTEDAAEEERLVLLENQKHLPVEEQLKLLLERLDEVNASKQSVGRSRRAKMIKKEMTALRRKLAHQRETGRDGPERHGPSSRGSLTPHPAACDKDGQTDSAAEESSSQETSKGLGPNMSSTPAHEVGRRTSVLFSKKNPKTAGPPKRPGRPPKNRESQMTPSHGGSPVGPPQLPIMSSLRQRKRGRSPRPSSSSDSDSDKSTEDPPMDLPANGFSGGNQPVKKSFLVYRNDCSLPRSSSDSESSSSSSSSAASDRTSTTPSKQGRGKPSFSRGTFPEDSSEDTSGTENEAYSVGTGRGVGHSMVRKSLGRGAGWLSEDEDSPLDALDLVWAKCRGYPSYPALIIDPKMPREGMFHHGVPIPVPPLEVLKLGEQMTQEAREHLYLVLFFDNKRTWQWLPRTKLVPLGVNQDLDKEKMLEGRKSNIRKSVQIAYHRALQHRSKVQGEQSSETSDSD
# [3] = biological target: T3, SMARCA2A (Homo sapiens, UniProt P51531); assay: Thermal shift assay, SMARCA2A
# T3 construct: purchased in-house (SGC bromodomain thermal shift / AlphaScreen panel)
# T3 sequence (P51531 whole entry): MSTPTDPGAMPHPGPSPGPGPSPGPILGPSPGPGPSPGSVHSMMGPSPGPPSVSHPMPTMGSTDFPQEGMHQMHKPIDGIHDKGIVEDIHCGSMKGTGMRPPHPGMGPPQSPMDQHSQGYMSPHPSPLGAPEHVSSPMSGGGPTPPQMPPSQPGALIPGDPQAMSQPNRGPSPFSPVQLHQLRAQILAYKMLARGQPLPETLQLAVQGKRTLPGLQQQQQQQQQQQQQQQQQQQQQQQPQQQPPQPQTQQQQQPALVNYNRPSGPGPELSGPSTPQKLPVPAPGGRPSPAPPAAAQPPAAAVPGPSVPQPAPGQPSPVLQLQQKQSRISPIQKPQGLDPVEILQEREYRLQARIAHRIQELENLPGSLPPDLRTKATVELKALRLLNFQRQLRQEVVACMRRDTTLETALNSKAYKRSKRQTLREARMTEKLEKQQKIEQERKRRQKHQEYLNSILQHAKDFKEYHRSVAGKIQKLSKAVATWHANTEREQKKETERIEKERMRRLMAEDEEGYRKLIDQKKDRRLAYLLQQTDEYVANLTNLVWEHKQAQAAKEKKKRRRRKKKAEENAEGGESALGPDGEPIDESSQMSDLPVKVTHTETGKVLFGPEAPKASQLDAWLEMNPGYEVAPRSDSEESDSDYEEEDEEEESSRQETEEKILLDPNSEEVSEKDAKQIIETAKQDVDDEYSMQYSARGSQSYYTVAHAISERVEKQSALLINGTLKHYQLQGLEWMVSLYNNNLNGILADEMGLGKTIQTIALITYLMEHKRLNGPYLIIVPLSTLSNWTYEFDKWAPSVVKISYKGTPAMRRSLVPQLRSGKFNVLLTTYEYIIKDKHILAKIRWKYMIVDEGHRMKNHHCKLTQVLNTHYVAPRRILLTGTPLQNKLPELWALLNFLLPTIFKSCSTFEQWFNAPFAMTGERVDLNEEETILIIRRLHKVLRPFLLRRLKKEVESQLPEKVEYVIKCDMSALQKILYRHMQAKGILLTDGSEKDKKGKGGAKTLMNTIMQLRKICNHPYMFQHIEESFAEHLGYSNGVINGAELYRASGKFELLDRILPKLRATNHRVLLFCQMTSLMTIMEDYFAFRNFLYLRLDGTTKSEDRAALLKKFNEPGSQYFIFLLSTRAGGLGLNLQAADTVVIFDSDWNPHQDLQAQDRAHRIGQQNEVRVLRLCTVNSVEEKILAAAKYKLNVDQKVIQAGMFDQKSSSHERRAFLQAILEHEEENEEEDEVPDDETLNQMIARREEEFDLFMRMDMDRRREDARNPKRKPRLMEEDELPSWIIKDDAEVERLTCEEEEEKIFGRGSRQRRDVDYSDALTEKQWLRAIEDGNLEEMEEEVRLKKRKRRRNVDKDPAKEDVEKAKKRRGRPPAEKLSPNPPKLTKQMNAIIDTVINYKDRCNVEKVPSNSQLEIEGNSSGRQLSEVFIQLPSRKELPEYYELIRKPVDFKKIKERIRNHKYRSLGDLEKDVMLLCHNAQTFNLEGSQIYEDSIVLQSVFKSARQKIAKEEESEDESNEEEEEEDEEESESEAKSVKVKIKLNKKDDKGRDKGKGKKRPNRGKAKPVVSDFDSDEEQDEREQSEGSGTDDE
SMILES,"Thermal stabilisation, TAF1L(1) ([1]; 10 µM compound concentration)","Thermal stabilisation, BRPF1B ([2]; 10 µM compound concentration)","Thermal stabilisation, SMARCA2A ([3]; 10 µM compound concentration)","Thermal stabilisation, TAF1L(1) ([1]; 50 μM compound)","Thermal stabilisation, BRPF1B ([2]; 50 μM compound)","Thermal stabilisation, SMARCA2A ([3]; 50 μM compound)"
"CCOC(=O)Nc1cc(-c2ccc(C)c(NS(C)(=O)=O)c2)nn2c(C)nnc12 [Bromosporine, reference compound]",0.575,4.23,0.35,,,
COC(=O)c1ccc(C(=O)Nc2ccc3[nH]c(CN4CCCCC4)nc3c2)cc1 [Compound 1],,,,0.39,0.275,1.445
C[C@H]1CCCN1Cc1nc2cc(NC(=O)c3ccc4c(cnn4C)c3)ccc2[nH]1 [Compound 92],,,,-0.215,-0.435,0.97
